Laboratory results published in PubChem BioAssay AID248 (DTP/NCI, 2004).
Values joined by “and” are separate entries in the source; they are usually repeats but may differ in a detail not shown here. Equal entries are not always repeated. Toxic doses and inconclusive results are not listed. Rule as the data show it: active = T/C of 150% or more; inactive = T/C below 125%.

Test system: L1210 leukemia ip in BDF1 mice, survival T/C
Assay: NCI In Vivo Anticancer Drug Screen. Data for tumor model L1210 Leukemia (intraperitoneal) in B6D2F1 (BDF1) mice
Settings: endpoint: mean survival time, higher = longer survival
How it was run: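 In this screen, tumor-bearing mice given compound are compared to those given vehicle, and their survival values are reported as a treated-to-control quotient.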

[1] = dose: 100.0 mg/kg/injection, schedule: Q01DX009 (ip), vehicle: Klucel (hydroxypropylcellulose) (HPC)
[2] = dose: 200.0 mg/kg/injection, schedule: Q01DX009 (ip), vehicle: Klucel (hydroxypropylcellulose) (HPC)
[3] = dose: 400.0 mg/kg/injection, schedule: Q01DX009 (ip), vehicle: Klucel (hydroxypropylcellulose) (HPC)
[4] = dose: 100.0 mg/kg/injection, schedule: Q04DX002 (ip), vehicle: Klucel (hydroxypropylcellulose) (HPC)
[5] = dose: 200.0 mg/kg/injection, schedule: Q04DX002 (ip), vehicle: Klucel (hydroxypropylcellulose) (HPC)
[6] = dose: 400.0 mg/kg/injection, schedule: Q04DX002 (ip), vehicle: Klucel (hydroxypropylcellulose) (HPC)
[7] = dose: 200.0 mg/kg/injection, schedule: Q01DX001 (ip), vehicle: carboxymethylcellulose (CMC)
[8] = dose: 400.0 mg/kg/injection, schedule: Q01DX001 (ip), vehicle: carboxymethylcellulose (CMC)
[9] = dose: 100.0 mg/kg/injection, schedule: Q04DX003 (ip), vehicle: Klucel (hydroxypropylcellulose) (HPC)
[10] = dose: 50.0 mg/kg/injection, schedule: Q01DX009 (ip), vehicle: saline with Tween-80
[11] = dose: 100.0 mg/kg/injection, schedule: Q01DX009 (ip), vehicle: saline with Tween-80
[12] = dose: 200.0 mg/kg/injection, schedule: Q01DX009 (ip), vehicle: saline with Tween-80

Measured: T/C

O=C(Nc1cc([N+](=O)[O-])ccc1O)c1ccc(Cl)c(Cl)c1
inactive: [1] 104 % of control | [2] 95 % of control | [3] 93 % of control

CCCP(=S)(CCC)P(=S)(CCC)CCC
inactive: [4] 100 % of control | [5] 92 % of control | [6] 92 % of control

O=c1[nH]c(CCCOc2ccccc2)nc2ccccc12
inactive: dose: 50.0 mg/kg/injection, schedule: Q01DX001 (ip), vehicle: Klucel (hydroxypropylcellulose) (HPC) 93 % of control | dose: 100.0 mg/kg/injection, schedule: Q01DX001 (ip), vehicle: Klucel (hydroxypropylcellulose) (HPC) 104 % of control | dose: 200.0 mg/kg/injection, schedule: Q01DX001 (ip), vehicle: Klucel (hydroxypropylcellulose) (HPC) 104 % of control

O=C(O)c1cc(Br)ccc1I
inactive: [4] 104 % of control | [5] 97 % of control | [6] 101 % of control

O=C(CC(CC(=O)c1ccccc1)c1ccncc1)c1ccccc1
inactive: dose: 50.0 mg/kg/injection, schedule: Q01DX001 (ip), vehicle: carboxymethylcellulose (CMC) 95 % of control | [7] 90 % of control | [8] 86 % of control

CCCCCS(=O)(=O)N(CC)CC
inactive: dose: 100.0 mg/kg/injection, schedule: Q04DX002 (ip), vehicle: saline with Tween-80 96 % of control | dose: 200.0 mg/kg/injection, schedule: Q04DX002 (ip), vehicle: saline with Tween-80 96 % of control | dose: 400.0 mg/kg/injection, schedule: Q04DX002 (ip), vehicle: saline with Tween-80 89 % of control

Cc1nc(N)n(C)n1
inactive: dose: 100.0 mg/kg/injection, schedule: Q04DX002 (ip), vehicle: saline 104 % of control | dose: 200.0 mg/kg/injection, schedule: Q04DX002 (ip), vehicle: saline 101 % of control | dose: 400.0 mg/kg/injection, schedule: Q04DX002 (ip), vehicle: saline 101 % of control

O=[N+]([O-])c1nc2ccccc2[nH]1
inactive: dose: 100.0 mg/kg/injection, schedule: Q01DX001 (ip), vehicle: other 98 % of control

ClCCN(CCCl)c1ccc(C=NCCCN=Cc2ccc(N(CCCl)CCCl)cc2Cl)c(Cl)c1
inactive: dose: 100.0 mg/kg/injection, schedule: Q01DX001 (ip), vehicle: carboxymethylcellulose (CMC) 97 % of control | [7] 92 % of control | [8] 95 % of control

O=[As](O)(O)c1ccc(N=NSc2ncnc3nc[nH]c23)cc1
inactive: dose: 7.5 mg/kg/injection, schedule: Q01DX015 (ip), vehicle: carboxymethylcellulose (CMC) 112 % of control | dose: 15.0 mg/kg/injection, schedule: Q01DX015 (ip), vehicle: carboxymethylcellulose (CMC) 115 % of control

Cc1cccc(C)c1NC(=O)NC/C(Br)=C/Br
inactive: dose: 75.0 mg/kg/injection, schedule: Q01DX009 (ip), vehicle: Klucel (hydroxypropylcellulose) (HPC) 100 % of control | dose: 150.0 mg/kg/injection, schedule: Q01DX009 (ip), vehicle: Klucel (hydroxypropylcellulose) (HPC) 100 % of control | dose: 300.0 mg/kg/injection, schedule: Q01DX009 (ip), vehicle: Klucel (hydroxypropylcellulose) (HPC) 104 % of control

CC1=CC=C(C(=O)O)C1
inactive: [1] 90 % of control | [2] 100 % of control | [3] 92 % of control

Cc1ccc(S(=O)(=O)OC/C(=C(/c2ccccc2)c2ccc(Cl)cc2)c2ccccc2)cc1
inactive: dose: 6.25 mg/kg/injection, schedule: Q04DX003 (ip), vehicle: saline with Tween-80 96 % of control | dose: 12.5 mg/kg/injection, schedule: Q04DX003 (ip), vehicle: saline with Tween-80 98 % of control | dose: 25.0 mg/kg/injection, schedule: Q04DX003 (ip), vehicle: saline with Tween-80 95 % of control

ClC(Cl)[P+](N1CCCCC1)(N1CCCCC1)N1CCCCC1
inactive: dose: 0.75 mg/kg/injection, schedule: Q04DX003 (ip), vehicle: Klucel (hydroxypropylcellulose) (HPC) 115 % of control | dose: 1.5 mg/kg/injection, schedule: Q04DX003 (ip), vehicle: Klucel (hydroxypropylcellulose) (HPC) 118 % of control | dose: 3.0 mg/kg/injection, schedule: Q04DX003 (ip), vehicle: Klucel (hydroxypropylcellulose) (HPC) 93 % of control and 118 % of control

CCCCCCCCCCCCNC(=O)CC(O)(CC(=O)O)C(=O)O (centres undefined)
inactive: [9] 96 % of control

COc1ccc(F)cc1CC(=O)O
inactive: [4] 102 % of control and 105 % of control | [5] 98 % of control and 105 % of control | [6] 91 % of control and 96 % of control

N#CC(Nc1ncccn1)c1ccccc1 (centres undefined)
inactive: [10] 104 % of control | [11] 93 % of control | [12] 104 % of control

Cc1ccc(S(=O)(=O)OC2CCC(=O)CC2)cc1
inactive: dose: 75.0 mg/kg/injection, schedule: Q01DX001 (ip), vehicle: acetone 92 % of control | dose: 150.0 mg/kg/injection, schedule: Q01DX001 (ip), vehicle: acetone 97 % of control | dose: 300.0 mg/kg/injection, schedule: Q01DX001 (ip), vehicle: acetone 100 % of control

COC(=O)C(C)CN1CC(C)OC(C)C1 (centres undefined)
inactive: dose: 100.0 mg/kg/injection, schedule: Q01DX009 (ip), vehicle: saline 95 % of control | dose: 100.0 mg/kg/injection, schedule: Q04DX003 (ip), vehicle: saline 102 % of control | dose: 200.0 mg/kg/injection, schedule: Q01DX009 (ip), vehicle: saline 97 % of control | dose: 200.0 mg/kg/injection, schedule: Q04DX003 (ip), vehicle: saline 98 % of control | dose: 400.0 mg/kg/injection, schedule: Q01DX009 (ip), vehicle: saline 95 % of control | dose: 400.0 mg/kg/injection, schedule: Q04DX003 (ip), vehicle: saline 104 % of control

CCC(Br)Cc1ccccc1 (centres undefined)
inactive: dose: 2.0 mg/kg/injection, schedule: Q01DX015 (ip), vehicle: saline 91 % of control | dose: 4.0 mg/kg/injection, schedule: Q01DX015 (ip), vehicle: saline 91 % of control | dose: 8.0 mg/kg/injection, schedule: Q01DX015 (ip), vehicle: saline 91 % of control | dose: 16.0 mg/kg/injection, schedule: Q01DX015 (ip), vehicle: saline 95 % of control

CC(=O)Cc1cc(=O)[nH]c(=S)[nH]1
inactive: [10] 95 % of control | [11] 92 % of control | [12] 92 % of control

CCN(CC)C(=O)C1CN2CCc3cc(OC)c(OC)cc3C2CC1OC(C)=O (centres undefined)
inactive: dose: 6.25 mg/kg/injection, schedule: Q01DX009 (ip), vehicle: Klucel (hydroxypropylcellulose) (HPC) 94 % of control | dose: 12.5 mg/kg/injection, schedule: Q01DX009 (ip), vehicle: Klucel (hydroxypropylcellulose) (HPC) 97 % of control | dose: 25.0 mg/kg/injection, schedule: Q01DX001 (ip), vehicle: water 92 % of control | dose: 25.0 mg/kg/injection, schedule: Q01DX009 (ip), vehicle: Klucel (hydroxypropylcellulose) (HPC) 94 % of control | dose: 25.0 mg/kg/injection, schedule: Q04DX003 (ip), vehicle: Klucel (hydroxypropylcellulose) (HPC) 103 % of control | dose: 50.0 mg/kg/injection, schedule: Q01DX001 (ip), vehicle: water 111 % of control | dose: 50.0 mg/kg/injection, schedule: Q01DX009 (ip), vehicle: Klucel (hydroxypropylcellulose) (HPC) 103 % of control | dose: 50.0 mg/kg/injection, schedule: Q04DX003 (ip), vehicle: Klucel (hydroxypropylcellulose) (HPC) 100 % of control | dose: 100.0 mg/kg/injection, schedule: Q01DX001 (ip), vehicle: water 97 % of control | [1] 103 % of control | [9] 97 % of control | [2] 115 % of control
